What follows are molecules tested against Urease (Canavalia ensiformis, UniProt P07374) (assay: Inhibition of jack bean urease assessed as reduction in ammonia production using urea as substrate incubated for 15 mins by indophenol method).
Urease, sequence (P07374 whole entry): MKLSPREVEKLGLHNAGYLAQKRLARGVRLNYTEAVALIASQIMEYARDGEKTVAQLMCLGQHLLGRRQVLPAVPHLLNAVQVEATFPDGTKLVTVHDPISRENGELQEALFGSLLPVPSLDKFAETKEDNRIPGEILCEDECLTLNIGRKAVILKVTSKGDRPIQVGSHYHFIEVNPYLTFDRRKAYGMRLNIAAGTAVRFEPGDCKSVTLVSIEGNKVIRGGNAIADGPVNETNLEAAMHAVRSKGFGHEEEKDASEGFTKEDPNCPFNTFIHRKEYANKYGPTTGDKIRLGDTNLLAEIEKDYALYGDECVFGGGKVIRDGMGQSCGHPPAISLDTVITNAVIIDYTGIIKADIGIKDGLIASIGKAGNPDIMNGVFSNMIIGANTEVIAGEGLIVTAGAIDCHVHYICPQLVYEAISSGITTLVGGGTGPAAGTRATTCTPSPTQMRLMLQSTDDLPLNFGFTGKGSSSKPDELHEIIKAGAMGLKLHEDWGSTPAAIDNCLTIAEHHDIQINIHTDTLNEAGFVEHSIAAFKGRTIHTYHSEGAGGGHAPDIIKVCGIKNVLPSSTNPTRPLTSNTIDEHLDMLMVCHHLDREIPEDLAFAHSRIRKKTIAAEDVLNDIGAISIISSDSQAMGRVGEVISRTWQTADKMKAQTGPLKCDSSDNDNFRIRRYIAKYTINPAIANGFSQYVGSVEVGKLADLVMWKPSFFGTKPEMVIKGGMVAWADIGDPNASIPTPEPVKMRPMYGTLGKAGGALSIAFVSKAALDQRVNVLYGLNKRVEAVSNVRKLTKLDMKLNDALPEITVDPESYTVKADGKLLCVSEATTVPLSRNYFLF

Going from `CCCCCCCCn1c2ccc(C(C)=O)cc2c2cc(C(=O)/C=C/c3ccccc3Br)ccc21` to `CCCCCCCCn1c2ccc(C(C)=O)cc2c2cc(C(=O)/C=C/c3ccco3)ccc21`, the IC50 rises from 8.93 µM to 24.8 µM (2.8-fold). The first is the more potent here.

First: CCCCCCCCn1c2ccc(C(C)=O)cc2c2cc(C(=O)/C=C/c3cc(OC)c(OC)c(OC)c3)ccc21
Second: CCCCCCCCn1c2ccc(C(C)=O)cc2c2cc(C(=O)/C=C/c3ccc(OC)cc3)ccc21
The IC50 of the first is 22-fold higher: 150 µM for the first, 6.88 µM for the second. The second is the more potent here.

Going from `CCCCCCCCn1c2ccc(C(C)=O)cc2c2cc(C(=O)/C=C/c3cccc([N+](=O)[O-])c3)ccc21` to `CCCCCCCCn1c2ccc(C(C)=O)cc2c2cc(C(=O)/C=C/c3ccc(Cl)cc3)ccc21`, the IC50 rises from 14.2 µM to 24.7 µM (1.7-fold).

`CCCCCCCCn1c2ccc(C(C)=O)cc2c2cc(C(=O)/C=C/c3ccc(N(C)C)cc3)ccc21` showed an IC50 of 149 µM.

The molecules below were run against Urease (Canavalia ensiformis) (UniProt P07374) (assay: Inhibition of jack bean urease assessed as reduction in ammonia production at 0.5 mM using urea as substrate incubated for 15 mins by indophenol method).
Urease (Canavalia ensiformis), sequence (P07374 whole entry, looked up): as the sequence (P07374 whole entry) above

Going from `CCCCCCCCn1c2ccc(C(C)=O)cc2c2cc(C(=O)/C=C/c3ccccc3Br)ccc21` to `CCCCCCCCn1c2ccc(C(C)=O)cc2c2cc(C(=O)/C=C/c3ccccc3Cl)ccc21`, the inhibition falls from 94.8% to 24.5%.

First: CCCCCCCCn1c2ccc(C(C)=O)cc2c2cc(C(=O)/C=C/c3cccc(OC)c3)ccc21
Second: CCCCCCCCn1c2ccc(C(C)=O)cc2c2cc(C(=O)/C=C/c3cccc(Br)c3)ccc21
The inhibition of the first is lower: 7.9% for the first, 10.9% for the second.

Going from `CCCCCCCCn1c2ccc(C(C)=O)cc2c2cc(C(=O)/C=C/c3ccc(Br)cc3)ccc21` to `CCCCCCCCn1c2ccc(C(C)=O)cc2c2cc(C(=O)/C=C/c3ccc(Cl)cc3)ccc21`, the inhibition rises from 24.9% to 95.1%.

Going from `CCCCCCCCn1c2ccc(C(C)=O)cc2c2cc(C(=O)/C=C/c3cc(OC)c(OC)c(OC)c3)ccc21` to `CCCCCCCCn1c2ccc(C(C)=O)cc2c2cc(C(=O)/C=C/c3ccc(OC)cc3)ccc21`, the inhibition rises from 74.5% to 98.5%.

Going from `CCCCCCCCn1c2ccc(C(C)=O)cc2c2cc(C(=O)/C=C/c3ccc([N+](=O)[O-])cc3)ccc21` to `CCCCCCCCn1c2ccc(C(C)=O)cc2c2cc(C(=O)/C=C/c3cccc([N+](=O)[O-])c3)ccc21`, the inhibition rises from 29.3% to 94.4%.

First: CCCCCCCCn1c2ccc(C(C)=O)cc2c2cc(C(=O)/C=C/c3ccco3)ccc21
Second: CCCCCCCCn1c2ccc(C(C)=O)cc2c2cc(C(=O)/C=C/c3ccccc3)ccc21
The inhibition of the first is higher: 78.7% for the first, 19.3% for the second.

Going from `CCCCCCCCn1c2ccc(C(C)=O)cc2c2cc(C(=O)/C=C/c3ccccc3[N+](=O)[O-])ccc21` to `CCCCCCCCn1c2ccc(C(C)=O)cc2c2cc(C(=O)/C=C/c3ccc(N(C)C)cc3)ccc21`, the inhibition rises from 18.6% to 22.6%.

Reference: ChEMBL document CHEMBL4665672, “Developing new hybrid scaffold for urease inhibition based on carbazole-chalcone conjugates: Synthesis, assessment of therapeutic potential and computational docking analysis” (Bioorg Med Chem, 2019)
